Results reported in patent US20160002248A1, “GLS1 INHIBITORS FOR TREATING DISEASE” (Board of Regents, The University of Texas System, priority 2014, published 2016).

Assays:
[1] = system: A549 cells; experiment: Proliferation Assay (A549 cell viability, Cell Titer Fluor); type: cell-based; conditions: Homo sapiens, 72 hours
Outline: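 Seed A549 at 1000 cells/well and culture 24 h. Add compound (final DMSO 0.5%) and incubate 72 h at 37 °C. Add Cell Titer Fluor, mix 15 min, incubate 30 min, read fluorescence and fit EC50 by four-parameter logistic.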

[2] = molecular target: T1, purified recombinant human GAC (GLS1) (Homo sapiens, UniProt O94925); experiment: GLS1 Enzymatic Activity Assay (dual-coupled enzymatic assay); type: biochemical
T1 sequence (O94925 55-598 isoform O94925-3 limits assumed): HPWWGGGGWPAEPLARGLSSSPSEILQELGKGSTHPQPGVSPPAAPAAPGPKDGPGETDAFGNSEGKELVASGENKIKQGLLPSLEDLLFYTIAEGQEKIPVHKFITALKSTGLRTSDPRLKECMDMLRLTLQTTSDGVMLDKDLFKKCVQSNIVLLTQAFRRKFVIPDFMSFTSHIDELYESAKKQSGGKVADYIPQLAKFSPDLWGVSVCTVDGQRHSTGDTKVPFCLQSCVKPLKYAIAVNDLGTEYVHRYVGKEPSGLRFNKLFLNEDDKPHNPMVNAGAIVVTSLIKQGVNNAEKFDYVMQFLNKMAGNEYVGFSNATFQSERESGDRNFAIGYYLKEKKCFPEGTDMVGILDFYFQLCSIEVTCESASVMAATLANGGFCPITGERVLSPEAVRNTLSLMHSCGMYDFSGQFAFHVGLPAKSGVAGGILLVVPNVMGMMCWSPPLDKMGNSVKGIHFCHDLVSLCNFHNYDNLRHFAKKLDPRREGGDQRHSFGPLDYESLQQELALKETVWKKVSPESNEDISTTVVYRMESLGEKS
Outline: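 GAC activity measured by coupling glutamate to glutamate oxidase and HRP, generating resorufin from Amplex UltraRed. Enzyme (2 nM) preincubated with 50 mM potassium phosphate 10 min at room temperature, then inhibitor 10 min; 1 mM glutamine substrate, 1% DMSO. Fluorescence 530/590 nm, kinetic or 20-min endpoint; IC50 from four-parameter logistic fit.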

| SMILES | EC50 [1] [nM] | IC50 [2] [nM] |
| --- | --- | --- |
| Cc1ccc(CNC(=O)c2cn(CCCCc3cc4c(C5=CCOCC5)c(C5CC5)[nH]c4nn3)nn2)cn1 [Example 196, 1-{4-[6-cyclopropyl-5-(3,6-dihydro-2H-pyran-4-yl)-7H-pyrrolo[2,3-c]pyridazin-3-yl]butyl}-N-[(6-mcthylpyridin-3-yl)methyl]-1H-1,2,3-triazole-4-carboxamide] | 100 to 500 | < 100 |
| O=C(NCc1cccc(OC(F)(F)F)c1)c1cn(CCCCc2cc3c(C4CC4)c(-c4ccccn4)[nH]c3nn2)nn1 [Example 177, 1-(4-(5-cyclopropyl-6-(pyridin-2-yl)-7H-pyrrolo[2,3-c]pyridazin-3-yl)butyl)-N-(3-(trifluoromethoxy)benzyl)-1H-1,2,3-triazole-4-carboxamide 2,2,2-trifluoroacetate] | 500 to 5000 | < 100 |
| COc1ccc(CNC(=O)c2cn(CCCCc3cc4cc(C5CC5)[nH]c4nn3)nn2)cn1 [Example 42, 1-(4-{6-cyclopropyl-7H-pyrrolo[2,3-c]pyridazin-3-yl}butyl)-N-[(6-methoxypyridin-3-yl)methyl]-1H-1,2,3-triazole-4-carboxamide] | 500 to 5000 | < 100 |
| O=C(NCc1ccc(C(F)(F)F)nc1)c1cn(CCCCc2cc3c(-c4ccoc4)c(C4CC4)[nH]c3nn2)nn1 [Example 188, 1-{4-[6-cyclopropyl-5-(furan-3-yl)-7H-pyrrolo[2,3-c]pyridazin-3-yl]butyl}-N-{[6-(trifluoromethyl)pyridin-3-yl]methyl}-1H-1,2,3-triazole-4-carboxamide] | 100 to 500 | < 100 |
| CNC(=O)c1cn(CCCCc2cc3cc(-c4ccccc4F)[nH]c3nn2)nn1 [Example 240, 1-{4-[6-(2-fluorophenyl)-7H-pyrrolo[2,3-c]pyridazin-3-yl]butyl}-N-methyl-1H-1,2,3-triazole-4-carboxamide] | 100 to 500 | 100 to 500 |
| O=C(Cc1ccccc1)Nc1nnc(CCCCc2cnc3[nH]ccc3c2)s1 [Example 24, N-(5-(4-(1H-pyrrolo[2,3-b]pyridin-5-yl)butyl)-1,3,4-thiadiazol-2-yl)-2-phenylacetamide] | > 5000 | 100 to 500 |
| O=C(NCc1cccc(OCC(F)(F)F)n1)c1cn(CCCCc2cc3cc(C4CC4)[nH]c3nn2)nn1 [Example 43, 1-(4-{6-cyclopropyl-7H-pyrrolo[2,3-c]pyridazin-3-yl}butyl)-N-{[6-(2,2,2-trifluoroethoxy)pyridin-2-yl]methyl}-1H-1,2,3-triazole-4-carboxamide] | 500 to 5000 | < 100 |
| O=C(NCc1ccc(C(F)(F)F)cn1)c1cn(CCCCc2cc3c(-c4ccoc4)c(C4CC4)[nH]c3nn2)nn1 [Example 187, 1-{4-[6-cyclopropyl-5-(furan-3-yl)-7H-pyrrolo[2,3-c]pyridazin-3-yl]butyl}-N-{[5-(trifluoromethyl)pyridin-2-yl]methyl}-1H-1,2,3-triazole-4-carboxamide] | 100 to 500 | < 100 |
| O=C(NCc1cccc(OC(F)(F)F)c1)c1cn(CCCCc2cc3c(C4=CCOCC4)c(C4CC4)[nH]c3nn2)nn1 [Example 195, 1-{4-[6-cyclopropyl-5-(3,6-dihydro-2H-pyran-4-yl)-7H-pyrrolo[2,3-c]pyridazin-3-yl]butyl}-N-{[3-(trifluoromethoxy)phenyl]methyl}-1H-1,2,3-triazole-4-carboxamide] | < 100 | < 100 |
| O=C(NCc1cc(OC(F)(F)F)ccc1F)c1cn(CCCCc2cc3cc(C4CN(S(=O)(=O)C(F)(F)F)C4)[nH]c3nn2)nn1 [Example 234, N-{[2-fluoro-5-(trifluoromethoxy)phenyl]methyl}-1-{4-[6-(1-trifluoromethanesulfonyl-azetidin-3-yl)-7H-pyrrolo[2,3-c]pyridazin-3-yl]butyl}-1H-1,2,3-triazole-4-carboxamide] | < 100 | < 100 |
| COc1cc(CNC(=O)c2cn(CCCCc3cc4cc(C5CC5)[nH]c4nn3)nn2)ccn1 [Example 44, 1-(4-{6-cyclopropyl-7H-pyrrolo[2,3-c]pyridazin-3-yl}butyl)-N-[(2-methoxypyridin-4-yl)methyl]-1H-1,2,3-triazole-4-carboxamide] | 500 to 5000 | 100 to 500 |
| O=C(Cc1ccccn1)Nc1nnc(CCCCc2cc3cc[nH]c3nn2)s1 [Example 2, N-(5-(4-(7H-pyrrolo[2,3-c]pyridazin-3-yl)butyl)-1,3,4-thiadiazol-2-yl)-2-(pyridin-2-yl)acetamide] | 500 to 5000 | 500 to 5000 |
| CC(=O)Nc1ccc(-c2c(C3CC3)[nH]c3nnc(CCCCn4cc(C(=O)NCc5cccc(OC(F)(F)F)c5)nn4)cc23)cc1 [Example 180, 1-{4-[6-cyclopropyl-5-(4-acetamidophenyl)-7H-pyrrolo[2,3-c]pyridazin-3-yl]butyl}-N-{[3-(trifluoromethoxy)phenyl]methyl}-1H-1,2,3-triazole-4-carboxamide] | 500 to 5000 | < 100 |
| CC(C)(C)OC(=O)N1CCC(c2cc3cc(CCCCn4cc(C(=O)NCc5cc(OC(F)(F)F)ccc5F)nn4)nnc3[nH]2)CC1 [Example 150, tert-butyl 4-(3-{4-[4-({[2-fluoro-5-(trifluoromethoxy)phenyl]methyl}carbamoyl)-1H-1,2,3-triazol-1-yl]butyl}-7H-pyrrolo[2,3-c]pyridazin-6-yl)piperidine-1-carboxylate] | < 100 | < 100 |
| CC(C)CNC(=O)c1cn(CCCCc2cc3cc(Cc4ccccc4)[nH]c3nn2)nn1 [Example 65, 1-(4-{6-benzyl-7H-pyrrolo[2,3-c]pyridazin-3-yl}butyl)-N-(2-methylpropyl)-1H-1,2,3-triazole-4-carboxamide] | 100 to 500 | 500 to 5000 |
| O=C(NCc1ccccn1)c1cn(CCCCc2cc3c(Cc4ccccc4)c(C4CC4)[nH]c3nn2)nn1 [Example 102, 1-(4-{5-benzyl-6-cyclopropyl-7H-pyrrolo[2,3-c]pyridazin-3-yl}butyl)-N-(pyridin-2-ylmethyl)-1H-1,2,3-triazole-4-carboxamide] | 500 to 5000 | < 100 |
| O=C(NCc1cc(C2CC2)ccn1)c1cn(CC(F)CCc2cc3cc(-c4ccccc4F)[nH]c3nn2)nn1 (stereo not shown) [Example 244, N-[(4-cyclopropylpyridin-2-yl)methyl]-1-{2-fluoro-4-[6-(2-fluorophenyl)-7H-pyrrolo[2,3-c]pyridazin-3-yl]butyl}-1H-1,2,3-triazole-4-carboxamide] | < 100 | < 100 |
| Cc1ccc(CNC(=O)c2cn(CCCCc3cc4c(-c5ccccc5F)c(C5CC5)[nH]c4nn3)nn2)cn1 [Example 122, 1-{4-[6-cyclopropyl-5-(2-fluorophenyl)-7H-pyrrolo[2,3-c]pyridazin-3-yl]butyl}-N-[(6-methylpyridin-3-yl)methyl]-1H-1,2,3-triazole-4-carboxamide] | < 100 | < 100 |
| O=C(NCc1cc(OC(F)(F)F)ccc1F)c1cn(CCCCc2cc3cc(C4CCN(C(=O)CC(F)(F)F)CC4)[nH]c3nn2)nn1 [Example 157, N-{[2-fluoro-5-(trifluoromethoxy)phenyl]methyl)-1-(4-{6-[1-(3,3,3-trifluoropropanoyl)piperidin-4-yl]-7H-pyrrolo[2,3-c]pyridazin-3-yl}butyl)-1H-1,2,3-triazole-4-carboxamide] | 100 to 500 | < 100 |
| CNC(=O)c1nnc(CCCCc2cc3cc(Cc4ccccc4)[nH]c3nn2)s1 [Example 70, 5-(4-{6-benzyl-7H-pyrrolo[2,3-c]pyridazin-3-yl}butyl)-N-methyl-1,3,4-thiadiazole-2-carboxamide] | 100 to 500 | 100 to 500 |
| O=C(NCc1cc(OC(F)(F)F)ccc1F)c1cn(CCCCc2cc3cc(C4CN(C(=O)OC5CCC5)C4)[nH]c3nn2)nn1 [Example 233, cyclobutyl 3-(3-{4-[4-({[2-fluoro-5-(trifluoromethoxy)phenyl]methyl}carbamoyl)-1H-1,2,3-triazol-1-yl]butyl}-7H-pyrrolo[2,3-c]pyridazin-6-yl)azetidine-1-carboxylate] | < 100 | < 100 |
| O=C(Cc1cccc(OC(F)(F)F)c1)Nc1nnc(CCCCc2cc3cc(Cc4ccccc4)[nH]c3nn2)s1 [Example 58, N-[5-(4-{6-benzyl-7H-pyrrolo[2,3-c]pyridazin-3-yl}butyl)-1,3,4-thiadiazol-2-yl]-2-[3-(trifluoromethoxy)phenyl]acetamide] | 100 to 500 | < 100 |
| N#Cc1ccc(CNC(=O)c2cn(CCCCc3cc4cc(C5CC5)[nH]c4nn3)nn2)cn1 [Example 53, N-[(6-cyanopyridin-3-yl)methyl]-1-(4-{6-cyclopropyl-7H-pyrrolo[2,3-c]pyridazin-3-yl}butyl)-1H-1,2,3-triazole-4-carboxamide] | 500 to 5000 | 100 to 500 |
